“Also recorded” adds a separate entry of the source.
Key:
[1] = test system: mice with oxygen-induced retinopathy (OIR); assay: Oxygen-induced retinopathy (OIR) mouse model, AVA and NVA in retinal flat mounts; format: in vivo, mouse (C57BL/6); details: for Avascular area (AVA), percent of total retinal area / Neovascular area (NVA), percent of total retinal area: mean ± SEM
Procedure: C57BL/6 mice with or without pregnancy (Subline J, specific pathogen-free class) were purchased from Jackson Laboratory, Bar Harbor, ME, and housed in room air (21% oxygen) at 25°C and a 12-h light/12-h dark cycle, with free access to food and water. Animal experiments were designed to provide intralitter control and equal size groups. We used randomization and blinded analysis. After delivery, pups from 1 litter were randomized into groups, and the number of mice in each group was n ≥ 6.
Pup litters together with their mothers were exposed to 75% oxygen from postnatal day 7 (P7) to P12 and returned to room air from P12 to P17.
For retinal flat mounts,[22] on P17, the eyeballs of the mice were enucleated and fixed in 4% paraformaldehyde for 0.5 h. Once the eyeball was fixed, its posterior segment was excised and fixed further in the same solution for 1 h, after which the retina was dissected and fixed again in 4% paraformaldehyde overnight at 4°C. Following this, the retina was washed sequentially as follows: thrice in phosphate-buffered saline (PBS) with 0.1% Tween-20 for 10 min each; in 50% methanol for 10 min; in 100% methanol for 10 min; and thrice in PBS with 0.1% Tween-20 for 10 min each. The retina was then blocked with 1% bovine serum albumin in 0.5% Triton X-100 in PBS for 30 min; incubated with Alexa Fluor 488 conjugated isolectin-B4 overnight at 4°C; washed 4 times in 0.1% Tween-20 in PBS; mounted on a glass slide; and covered with PermaFluorTM aqueous mounting medium.
Retinal flat mounts were imaged with an optical microscope at 10 × magnification, and the avascular area (AVA) and neovascular area (NVA) were delineated with ImageJ, a public domain Java image processing and analysis program. The software provides the user with the ability to determine total image surface area, AVA and NVA. Noncontinguous regions of interest such as AVA and NVA could be outlined and the areas could be summed. Results are expressed as a percent of the total surface area in dimensionless units. The person measuring the AVA and NVA was blinded as to the treatment received by that animal.
Table 1 summarizes the routes of administration of each study drug (OXT-328, Q-922, CL-717). From previous studies, we knew that our lead compound OXT-328 was subject to rapid hydrolysis by carboxylesterases.
(§1) We used a 10% solution of the water-soluble CL-717 in ddH2O with its pH adjusted to 5.0 ± 0.2 with NaOH, and its osmolality to 300 ± 20 mOsm/kg H2O with 18% NaCl. To formulate a 7.15% solution of Q-922 for topical delivery, 71.5 mg of Q-922 was dissolved in 800 μL of a 5% Tween 80/95% normal saline solution, pH 7.0. Additions of 150 μL of 15% solution of polyethylene glycol and 50 μL of 5% solution of Kolliphor EL were made to the Q-922 solution.
(§2) The pH was adjusted to 6.8 and the final volume was 1 mL. Q-922 similar to CL-717 was applied to the ocular surface as 5 μL eye drops when P12 mice were returned to room air. To prepare OXT-328 eye drops, vitamin E TPGS (D-α-tocopheryl polyethylene glycol 1000 succinate) and polyquaternium-1 were dissolved in purified water. OXT-328 (3.5%) was added to this solution, and stirred at 70°C for 30 min. This solution was then centrifuged at 13,200 rpm for 10 min and the supernatant was collected. Mannitol and boric acid were added to the harvested supernatant. After pH adjustment to 6.7 ± 0.2 using NaOH, purified water was added to the final volume. The resulting solution was sterilized by filtration through a 0.22 μm filter.
For intravitreal injections, Q-922 and OXT-328 were formulated as follows: vitamin E TPGS and polyquaternium-1 were dissolved in ddH2O and the respective drug was added, and the solution was stirred at 70°C for 30 min. This solution was then centrifuged at 13,200 rpm for 10 min and the supernatant was collected. Mannitol and boric acid were added to the supernatant to final concentrations of 3.18% (w/v) and 1.2% (w/v), respectively. […]

[2] = Uptake and biodistribution of CL-717 in explanted human eyes; format: in vitro ADME; details: explanted human eye, tissues at 1 h, 35.5°C
Procedure: Human eyes were obtained through the Lions Eye Bank for Long Island, Valley Stream, NY. […] The donor's identity was protected by de-identifying each sample. Following harvesting, they were transported on ice and delivered to the laboratory for study within 2 h after enucleation.
The anterior surface of explanted human eyes was immersed in CL-717 10% solution for 1 or 10 min, followed by washing with ddH2O. The eyes were placed in a Petri dish with their anterior part facing up, and the dish was covered and incubated for 1 h at 35.5°C, the normal in vivo eye temperature.

[3] = test system: chicken chorioallantoic membrane (CAM); assay: Ex ovo chicken chorioallantoic membrane (CAM) angiogenesis assay; format: in vivo; details: 72 h
Procedure: Fertilized chick eggs were obtained from Charles River Labs (North Franklin, CT) and transferred to a specialized incubator with an automatic rotating device (Grumbach, Lyon Technologies, Inc., Brutgerate GmbH, Germany) for 3 days at 37°C and 70% humidity. After incubation, the eggs were cracked, and the embryo was transferred to a 100 × 25 mm sterilized Petri dish in a laminar flow hood. The eggs were incubated for 7 days and the sterilized filter paper disc containing water, 50 μM of OXT-328, or 50 μM of Q-922, or 100 μM of CL-717 was plated on the yolk sac membrane. The filter papers were treated with each reagent twice per day. Three days later, the angiogenic response was expressed as microvessel density in the CAM area determined under a microscope.[25]

in vivo = details: mouse; for Cmax: Retinal Cmax; for Cmax / concentration at 1 h: adult mice; for concentration at 1 h: 1 h after OXT-328 3.5% eye drops (3 drops per eye)
Procedure: (§3) In these studies, we used adult mice, giving us more ocular tissue to work with, even though differences may exist between adult and neonatal tissues. […] The pupils were dilated with topical 1% tropicamide. At different time points after the last eye drop, the mice were euthanized and their corneas and retinas were collected quickly, immediately frozen in liquid nitrogen, and stored at −80°C until analyzed.
(§4) Briefly, each tissue sample was weighed and 100–300 μL ddH2O was added, depending on tissue weight, and homogenized.

[4] = set-up: method as in PMID 21955327; details: systemically administered, rapidly hydrolyzed; cited from earlier work
[5] = Ocular pharmacokinetics and biodistribution in adult mice (HPLC tissue levels); details: for concentration at 1 h: cornea, topical
Procedure: as §3, §4

[6] = Safety: side effects during administration in mice; format: in vivo, mouse
Procedure: as §1, §2

[7] = 10% eye drops, 5 μL 5x/day, P12-P17
[8] = 10% eye drops, 5 μL 5x/day, P12-P17, P17
[9] = single 1 μL intravitreal injection of 1% on P12, retinas on P17
[10] = 50 μM on filter disc twice per day
[11] = adult mice, single 1 μL intravitreal injection of OXT-328 1%
[12] = read-out: Retinal Cmax, adult mice, single 1 μL intravitreal injection of OXT-328 1%, mean ± SEM
[13] = intraperitoneal 100 mg/kg once daily P7-P17
[14] = intraperitoneal 150 mg/kg once daily P7-P17
[15] = intraperitoneal 150 mg/kg once daily P7-P17, P17
[16] = single 1 μL intravitreal injection of 1% on P12, P17

SMILES: CCOP(=O)(NCCN1CCN(C(=O)CC2=C(C)/C(=C/c3ccc([S+](C)[O-])cc3)c3ccc(F)cc32)CC1)OCC (stereo not drawn) [CL-717, (Z)-diethyl 2-(4-(2-(5-fluoro-2-methyl-1-(4-(methylsulfinyl)benzylidene)-1H-inden-3-yl)acetyl)piperazin-1-yl)ethylphosphoramidate]
- AVA reduction versus vehicle [1, 7]: 65%
- NVA reduction versus vehicle [1, 7]: 63%
- Avascular area (AVA), percent of total retinal area [1, 8]: 5.8% ± 0.8%
- Neovascular area (NVA), percent of total retinal area [1, 8]: 8.3% ± 1.6%
- CL-717 level in retina ([2]; ocular surface in 10% solution for 1 min): 12.6 µM
- CL-717 level in retina ([2]; ocular surface in 10% solution for 10 min): 46.6 µM
- Reduction of average new vessel formation versus control ([3]; 100 μM on filter disc twice per day): 34.2%
- Tmax (in vivo; topical or ocular): 0.5 h
- half-life (in vivo; topical or ocular): 4.7 h
- Cmax (in vivo; topical or ocular, 3 eye drops of CL-717 10% on the ocular surface): 2.5 µM

SMILES: CCOP(=O)(OCC)OCCCCOC(=O)CC1=C(C)/C(=C/c2ccc([S+](C)[O-])cc2)c2ccc(F)cc21 (stereo not drawn) [OXT-328, phospho-sulindac]
- Effect on OIR ([1]; eye drops, data not shown): no effect
- Avascular area (AVA), percent of total retinal area [1, 9]: 6.9% ± 2.4%
- Neovascular area (NVA), percent of total retinal area [1, 9]: 5.6% ± 1.9%
- Reduction of average new vessel formation versus control [3, 10]: 29.3%
- Level in plasma and many tissues like the eye after systemic administration [4]: essentially undetectable
- half-life (in vivo): 4.8 h
- concentration at 1 h (in vivo; Level in the cornea, mean ± SEM): 0 µM
- concentration at 1 h (in vivo; Level in the retina, mean ± SEM): 0.4 ± 0.2 µM
- Cmax (in vivo; single 1 μL intravitreal injection of OXT-328 1%, mean ± SEM): 516 ± 64 µM
- Retinal Tmax [5, 11]: 2 h
- Cmax [5, 12]: 516 ± 64.4 µM

SMILES: CCOP(=O)(NCCCCNC(=O)c1ccccc1SC/C=C(\C)CC/C=C(\C)CCC=C(C)C)OCC [Q-922, diethyl 4-(2-((2E,6E)-3,7,11-trimethyldodeca-2,6,10-trienylthio)benzamido)butylphosphoramidate]
- Effect on AVA [1, 13]: no significant effect
- Effect on NVA [1, 13]: no significant effect
- AVA reduction versus vehicle [1, 14]: 28%
- NVA reduction versus vehicle [1, 14]: 61%
- Avascular area (AVA), percent of total retinal area [1, 15]: 8.4% ± 0.5%
- Neovascular area (NVA), percent of total retinal area [1, 15]: 9.5% ± 2.6%
- AVA reduction versus vehicle [1, 16]: 75%
- NVA reduction versus vehicle [1, 16]: 52%
- Avascular area (AVA), percent of total retinal area [1, 9]: 3.5% ± 0.5%
- Neovascular area (NVA), percent of total retinal area [1, 9]: 5.2% ± 1.7%
- Reduction of average new vessel formation versus control [3, 10]: 41.4%
- Side effects on the ocular surface ([6]; Q-922 eye drops (7.15% formulation) applied to the ocular surface of mice): erythema and mild edema on the ocular surface; also recorded: erythema and edema restricted to the cornea and conjunctiva
- Time for side effects to subside after treatment was discontinued ([6]; Q-922 eye drops applied to the ocular surface of mice): ≤ 48 h

SMILES: CSc1ccc(/C=C2/C(C)=C(CC(=O)O)c3cc(F)ccc32)cc1 [sulindac sulfide]
- Retinal Cmax ([5]; adult mice, single 1 μL intravitreal injection of OXT-328 1%, mean ± SEM): undetectable
- concentration at 1 h ([5]; mouse): 3.1 ± 0.6 µM

SMILES: CC1=C(CC(=O)O)c2cc(F)ccc2/C1=C\c1ccc(S(C)(=O)=O)cc1 [sulindac sulfone]
- Level in the cornea ([5]; adult mice, 1 h after OXT-328 3.5% eye drops (3 drops per eye), mean ± SEM): 3.8 ± 0.7 µM
- Retinal Cmax, fold lower than OXT-328 [5, 11]: > 30 fold
- Cmax [5, 12]: 14.5 ± 2.4 µM

SMILES: CC1=C(CC(=O)O)c2cc(F)ccc2/C1=C\c1ccc([S+](C)[O-])cc1 (stereo not drawn) [sulindac, reference compound]
- Retinal Cmax, fold lower than OXT-328 [5, 11]: > 30 fold
- concentration at 1 h ([5]; mouse): 48.3 ± 7.9 µM
- Cmax ([5]; mouse, retina, other: intravitreal injection): 7.1 ± 2.4 µM
